Measured values from patent US6476187B1, “Methods and reagents for discovering and using mammalian melanocortin receptor agonists and antagonists to modulate feeding behavior in animals” (Oregon Health & Sciences University, priority 1992, dated 2002).
Residues, ends and D or L forms follow the SMILES beside them.

Experiments:
rat MC3-R = molecular target: T1, rat MC3-R (Rattus norvegicus, UniProt P32244); assay: intracellular cAMP production in 293 cells expressing MC3-R; format: cell-based; details: 1 h at 37° C.
T1 construct: The entire coding region of the MC-3 receptor cDNA insert; expressed in transfected cells; host or cells: human 293 cells, pcDNA/neo I, G418-selected
T1 sequence (P32244 whole entry): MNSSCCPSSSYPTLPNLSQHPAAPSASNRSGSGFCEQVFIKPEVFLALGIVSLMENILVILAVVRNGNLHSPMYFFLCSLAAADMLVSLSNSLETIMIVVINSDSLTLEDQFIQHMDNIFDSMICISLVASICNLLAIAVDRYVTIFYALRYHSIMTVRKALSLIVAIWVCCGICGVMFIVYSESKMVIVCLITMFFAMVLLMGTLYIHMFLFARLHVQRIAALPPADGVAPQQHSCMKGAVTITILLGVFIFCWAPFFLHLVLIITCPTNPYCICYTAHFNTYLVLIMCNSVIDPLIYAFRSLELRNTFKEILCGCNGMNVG
Procedure: cAMP production assays as described above were also used to analyze expression of MC3-R in cells transfected with the expression vectors described herein as follows. […] Following hormone treatment, the cells were washed twice with phosphate buffered saline and intracellular cAMP extracted by lysing the cells with 1 mL of 60% ethanol.

[1] = molecular target: T2, murine αMSH receptor (MC-1) (Mus musculus, UniProt Q01727); assay: intracellular cAMP accumulation in 293 cells transfected with mouse αMSH receptor; format: cell-based; details: 293 cells expressing murine αMSH receptor
T2 construct: excising the entire coding region of the αMSH^R (MC-1) cDNA insert comprising a 2.1 kb fragment; expressed in transfected cells; host or cells: human 293 cells, pcDNAI/neo, G418-selected
T2 sequence (Q01727 whole entry, the tested form may be a part): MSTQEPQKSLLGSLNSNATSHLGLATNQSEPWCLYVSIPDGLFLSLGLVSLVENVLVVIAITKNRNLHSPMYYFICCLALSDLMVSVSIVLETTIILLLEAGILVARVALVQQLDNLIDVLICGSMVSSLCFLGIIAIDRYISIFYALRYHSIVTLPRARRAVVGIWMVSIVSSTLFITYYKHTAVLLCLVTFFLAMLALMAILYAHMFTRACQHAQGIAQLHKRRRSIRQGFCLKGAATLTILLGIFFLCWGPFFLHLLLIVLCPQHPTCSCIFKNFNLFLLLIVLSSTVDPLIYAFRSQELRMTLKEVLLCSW
Procedure: After transfection, cells were cultured in DMEM media supplemented with 10% calf serum in a 3% CO2 atmosphere at 37° C. Selection was performed with neomycin (G418; GIBCO) at a concentration of 1000 μg/mL; selection was started 72 hr after transfection and continued for 3 weeks.
Following hormone treatment, the cells were washed twice with phosphate buffered saline and intracellular cAMP extracted by lysing the cells with 1 mL of 60% ethanol.

rat MC-3 receptor = molecular target: T3, rat MC-3 receptor (Rattus norvegicus, UniProt P32244); assay: competition of [Nle4,D-Phe7]α-MSH binding to rat MC-3 receptor; details: peptide about 60% pure; IC50 could not be determined
T3 construct: The entire coding region of the MC-3 receptor cDNA insert; expressed in transfected cells; host or cells: human 293 cells, pcDNA/neo I, G418-selected
T3 sequence (P32244 whole entry): as the sequence (P32244 whole entry) above
Source text: […]. In these experiments, murine agouti peptide was produced using a baculovirus system as described by Lu et al., (1994, Nature 371: 799-802), with the modification that the agouti peptide was purified from baculovirus supernatants by 0.6M NaCl step elution from an EconoS cation exchange column (BioRad). Agouti peptide used in these assays was approximately 60% pure.

human MC-4-R = human MC-4-R (Homo sapiens, UniProt P32245); details: Lu et al., 1994; cited from earlier work
Sequence of human MC-4-R (P32245 whole entry): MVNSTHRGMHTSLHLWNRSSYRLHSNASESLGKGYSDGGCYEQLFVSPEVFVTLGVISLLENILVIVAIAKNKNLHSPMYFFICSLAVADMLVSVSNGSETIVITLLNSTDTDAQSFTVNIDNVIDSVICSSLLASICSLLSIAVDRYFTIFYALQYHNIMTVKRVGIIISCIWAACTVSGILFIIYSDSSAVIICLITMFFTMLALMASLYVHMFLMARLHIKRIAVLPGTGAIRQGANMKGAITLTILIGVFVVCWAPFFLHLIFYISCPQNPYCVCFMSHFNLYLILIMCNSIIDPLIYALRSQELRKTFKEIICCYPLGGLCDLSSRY

CSCC[C@H](NC(=O)[C@@H](NC(=O)[C@@H](N)Cc1ccc(O)cc1)C(C)C)C(=O)NCC(=O)N[C@@H](Cc1c[nH]cn1)C(=O)N[C@@H](Cc1ccccc1)C(=O)N[C@@H](CCCNC(=N)N)C(=O)N[C@@H](Cc1c[nH]c2ccccc12)C(=O)N[C@@H](CC(=O)O)C(=O)N[C@@H](CCCNC(=N)N)C(=O)N[C@@H](Cc1ccccc1)C(=O)NCC(=O)N[C@@H](CCCNC(=N)N)C(=O)N[C@@H](CCCNC(=N)N)C(=O)N[C@@H](CC(N)=O)C(=O)NCC(=O)N[C@@H](CO)C(=O)N[C@@H](CO)C(=O)N[C@@H](CO)C(=O)N[C@@H](CO)C(=O)NCC(=O)N[C@H](C(=O)NCC(=O)NCC(=O)N[C@@H](C)C(=O)N[C@@H](C)C(=O)N[C@@H](CCC(N)=O)C(=O)O)C(C)C [γ3-MSH] (H-YVMGHFRWDRFGRRNGSSSSGVGGAAQ-OH; N-terminus and C-terminus assumed)
EC50 (rat MC3-R): 6 nM

CSCC[C@H](NC(=O)[C@H](CCCNC(=N)N)NC(=O)[C@H](Cc1ccc(O)cc1)NC(=O)[C@@H]1CCCN1C(=O)CNC(=O)[C@H](CCC(=O)O)NC(=O)[C@H](CC(=O)O)NC(=O)[C@H](CCCCN)NC(=O)[C@H](CCCCN)NC(=O)[C@H](CCC(=O)O)NC(=O)[C@H](C)N)C(=O)N[C@@H](CCC(=O)O)C(=O)N[C@@H](Cc1c[nH]cn1)C(=O)N[C@@H](Cc1ccccc1)C(=O)N[C@@H](CCCNC(=N)N)C(=O)N[C@@H](Cc1c[nH]c2ccccc12)C(=O)NCC(=O)N[C@@H](CO)C(=O)N1CCC[C@H]1C(=O)N1CCC[C@H]1C(=O)N[C@@H](CCCCN)C(=O)N[C@@H](CC(=O)O)C(=O)O [βMSH]
EC50 (intracellular cAMP) ([1]; 45 min at 37° C.): comparable to αMSH

CSCC[C@H](NC(=O)[C@@H](NC(=O)[C@@H](N)Cc1ccc(O)cc1)C(C)C)C(=O)NCC(=O)N[C@@H](Cc1c[nH]cn1)C(=O)N[C@@H](Cc1ccccc1)C(=O)N[C@@H](CCCNC(=N)N)C(=O)N[C@@H](Cc1c[nH]c2ccccc12)C(=O)N[C@@H](CC(=O)O)C(=O)N[C@@H](CCCNC(=N)N)C(=O)N[C@@H](Cc1ccccc1)C(N)=O [γ-MSH, γ-melanocyte stimulating hormone]
activity in elevating intracellular cAMP [1]: little or no activity

B1: agouti peptide: murine agouti peptide produced using a baculovirus system, approximately 60% pure (protein)
chain: HLALEETLGDDRSLRSNSSMNSLDFSSVSIVALNKKSKKISRKEAEKRKRSSKKKASMKKVARPPPPSPCVATRDSCKPPAPACCDPCASCQCRFFGSACTCRVLNPNC
competition of [Nle4,D-Phe7]α-MSH binding (rat MC-3 receptor): Specific competition | competition of αMSH activation (human MC-4-R): Specific competition
